Consider five molecules from US20210128667A1, “IMMUNOPROTEASOME INHIBITORS AND IMMUNOSUPPRESSIVE AGENT IN THE TREATMENT OF AUTOIMMUNE DISORDERS” (KEZAR LIFE SCIENCES, priority 2017, published 2021).

The structures appear in SMILES notation.

The test system of series [1] is immune cell types. Nature of the series: In vitro immune cell function (cytokine production, T-cell subsets, plasma cells, autoantibodies). In kind it is cell-based.
The test system of series [2] is non-proteasomal targets. The series is described as follows: Broad diversity panel of biochemical assays (110 receptor/ligand and enzyme assays).
Series [3] deals with T1, immunoproteasome (Homo sapiens, UniProt P28062+P28065+P40306).
T1 construct: endogenous in cells
The series is described as follows: Immunoproteasome inhibition in human cells in vitro. The series is classed as cell-based.

In series [4] the test system is immunoproteasome. Nature of the series: Immunoproteasome inhibition in blood and tissues after administration to monkeys. In kind it is in vivo. The following applies: administered to monkeys.
In series [5] the target is LMP7 subunit of the immunoproteasome (Homo sapiens, UniProt P28062). The series is described as follows: In vitro inhibition of immunoproteasome subunits. The series is classed as biochemical.
For series [6], the system named is NZB/WF1 mice with established nephritis. Nature of the series: NZB/W F1 mouse model of established nephritis: proteinuria (urine dipsticks) and survival. In kind it is in vivo. The following applies: 2.5 mg/kg KZR-616 SC QW, 30 mg/kg QDx7 PO MMF, in comparison with the untreated mice. The method, then:
NZB/W Fl mice were purchased from Jackson Laboratories. All mice were housed in the animal facility at Kezar Life Sciences. All experiment protocols were reviewed and approved by the Kezar Committee on Animal Resources. NZB/WF1 mice with established nephritis (24 weeks of age with duratble proteinuria ≥1+ proteinuria) were treated with vehicle alone, 2.5 mg/kg KZR-616 SC QW, 30 mg/kg QDx7 PO MMF or the combination of 2.5 mg/kg KZR-616 SC QW KZR-616 and 30 mg/kg QDx7 PO MMF. Proteinuria was monitored weekly once with urine dipsticks (Uristix by Bayer) and survival was observed.
To investigate immunoproteasome inhibition combined with the standard of care treatment MMF, NZB/w mice were administered vehicle alone, 2.5 mg/kg KZR-616 SC QW, 30 mg/kg QDx7 PO MMF or the combination of KZR-616 and MMF.

The target of series [7] is T2, immunoproteasome (Rattus norvegicus, UniProt P28064+P28077+Q4KM35).
T2 construct: from tissue; host or cells: blood and tissues of dosed rats
Nature of the series: Immunoproteasome inhibition in blood and tissues after administration to rats. In kind it is in vivo. The following applies: administered to rats.

Series [8] concerns mouse models of multiple sclerosis and SLE. The following applies: in vivo; cited from earlier work.
For series [9], the system named is mouse models of RA. The following applies: doses one tenth of the maximum tolerated dose (MTD); cited from earlier work.
For series [10], the target named is immunoproteasome (Mus musculus, UniProt O35955+P28063+P28076). The note with it: upon administration to mice; cited from earlier work.
For series [11], the system named is immune effector cells. The note with it: cited from earlier work.
For series [12] the following is noted: in vivo; cited from earlier work.
Series [13] relates to immune effector cells. The following applies: cited from earlier work. The source holds these as a separate data set.
Series [14] concerns patients with refractory SLE and LN. The following applies: patients who had failed standard immunosuppressive therapies; cited from earlier work.
Series [15] has as its system animal models of autoimmune disorders. The note with it: animal models including RA and SLE; cited from earlier work.

Regarding `COc1ccc([C@@H](O)[C@H](NC(=O)[C@H](C)NC(=O)CN2CCOCC2)C(=O)N[C@@H](CC2=CCCC2)C(=O)[C@@]2(C)CO2)cc1` [KZR-616], in [1], the “activity of inflammatory T-helper cell subsets” value is given as “reduces the activity of inflammatory T-helper cell subsets”; the “number of regulatory T-cells” value is “increases the number of regulatory T-cells”; the “plasma cell formation and autoantibody production” value was “blocks plasma cell formation and autoantibody production”. Besides, the cytokine production result in series [1] (multiple immune cell types) is recorded as “blocks cytokine production across multiple immune cell types”. Moreover, the “inhibition of non-proteasomal targets” value in [2] is on record as “did not inhibit any non-proteasomal targets”. Moreover, the “inhibition of the immunoproteasome” value in series [3] was “potent and selective inhibition of the immunoproteasome”. The “inhibition of the immunoproteasome in blood and tissues” value in series [4] is “potent and selective inhibition in blood and tissues”. For the same molecule, the “mechanism of inhibition of immunoproteasome subunits” value in [5] is “irreversible mechanism”. Moreover, in series [5] (in vitro, selectivity relative to(35)), the “inhibition of the LMP7 subunit” value is “potent and selective inhibition”. Also, in series [6], the level of proteinuria result is recorded as “significantly reduced the level of proteinuria” and the survival entry was “increased survival”. Further, the “inhibition of the immunoproteasome in blood and tissues” value in series [7] is “potent and selective inhibition in blood and tissues”.

In the case of `COc1c(C)c2c(c(O)c1C/C=C(\C)CCC(=O)OCCN1CCOCC1)C(=O)OC2` [MMF, mycophenolate mofetil], in [6], the level of proteinuria result is listed as “significantly reduced the level of proteinuria” and the survival entry is “increased survival”.

As to `COc1ccc(C[C@H](NC(=O)[C@H](C)NC(=O)CN2CCOCC2)C(=O)N[C@@H](Cc2ccccc2)C(=O)[C@]2(C)CO2)cc1` [ONX 0914], in [8], the “activity and tolerability compared with bortezomib” value is listed as “equivalent activity but better tolerability than bortezomib”; the therapeutic activity result was “therapeutically active”. The “joint inflammation, cytokine production and joint damage” value in [9] is “prevent joint-specific inflammation, reduce cytokine production, and ameliorate joint damage”. The “inhibition of the immunoproteasome” value in series [10] was “selectively inhibits the immunoproteasome”. In series [11], the autoantibody formation result is “blocked autoantibody formation”; the “number and activity of inflammatory T-cell subsets such as Th1 and Th17” value is “reduced the number and activity of inflammatory T-cell subsets”; the “number of regulatory T-cells (Treg)” value is given as “increased the number of regulatory T-cells”. For the same molecule, in series [11] (immune effector cells), the cytokine production result is on record as “inhibited cytokine production in immune effector cells”.

As for `CC(C)C[C@H](NC(=O)[C@H](Cc1ccccc1)NC(=O)c1cnccn1)B(O)O` [bortezomib], in series [12], the peripheral neuropathy result is listed as “dose limiting side effect of peripheral neuropathy”. The cytokine release result in series [13] was “blocks cytokine release from immune effector cells”. Further, in [14], the clinical activity result is given as “shown to have clinical activity”. In addition, the anti-inflammatory activity entry in series [15] was “demonstrated anti-inflammatory activity”.

Take `CC(C)C[C@H](NC(=O)[C@H](CCc1ccccc1)NC(=O)CN1CCOCC1)C(=O)N[C@@H](Cc1ccccc1)C(=O)N[C@@H](CC(C)C)C(=O)[C@@]1(C)CO1` [carfilzomib]: the peripheral neuropathy result in [12] is “Peripheral neuropathy is not induced”.
